{"source": "patent US20040077881A1", "about": "“$G(d)1-pyrrolines used in pest control” (priority 2001, published 2004)", "key": {"[1]": {"system": "caterpillars of the army-worm (Spodoptera exigua)", "assay": "Spodoptera exigua test", "format": "in vivo", "conditions": "1000 ppm, cabbage leaves dipped", "method": "(§1) [table] To produce a suitable preparation of active compound, 1 part by weight of active compound is mixed with the stated amounts of solvent and emulsifier, and the concentrate is diluted with emulsifier-containing water to the desired concentration. Cabbage leaves (Brassica oleracea) are treated by being dipped into the preparation of active compound of the desired concentration and are populated with caterpillars of the army-worm (Spodoptera exigua) whilst the leaves are still moist. After the desired period of time, the kill in % is determined. 100% means that all caterpillars have been killed; 0% means that none of the caterpillars have been killed."}, "[2]": {"system": "caterpillars of the army-worm (Spodoptera frugiperda)", "assay": "Spodoptera frugiperda test", "format": "in vivo", "conditions": "1000 ppm, cabbage leaves dipped", "method": "as §1, with “frugiperda)” for “exigua)”"}, "[3]": {"system": "Heliothis virescens caterpillars", "assay": "Heliothis virescens test", "format": "in vivo", "conditions": "1000 ppm, soyabean shoots dipped", "method": "Solvent: 30 parts by weight of dimethylformamide Emulsifier: 1 part by weight of alkylaryl polyglycol ether To produce a suitable preparation of active compound, 1 part by weight of active compound is mixed with the stated amounts of solvent and emulsifier, and the concentrate is diluted with emulsifier-containing water to the desired concentration. Soyabean shoots (Glycine max) are treated by being dipped into the preparation of active compound of the desired concentration and populated with Heliothis virescens caterpillars whilst the leaves are still moist. After the desired period of time, the kill in % is determined. 100% means that all caterpillars have been killed; 0% means that none of the caterpillars have been killed."}, "[4]": {"system": "Amblyomma variegatum or A. hebraeum, nymphs which have sucked themselves full", "assay": "Nymph ecdysis test on polyphagous ticks", "format": "in vivo", "conditions": "100 ppm; nymphs immersed for 1 minute; assessed after 4 to 6 weeks", "method": "[table] 20 mg of active compound are dissolved in 1 ml of dimethyl sulphoxide, more dilute concentrations are prepared by dilution with dist. H2O. 10 nymphs which have sucked themselves full are immersed for 1 minute into the preparation of active compound to be tested. The animals are transferred to petri dishes (Ø0 9.5 cm) fitted with filter discs and covered. After the nymphs have remained in a controlled-environment cabinet for 4 to 6 weeks, the effect on ecdysis is determined. 100% means that none of the animals have undergone normal ecdysis. 0% means that all animals have undergone ecdysis."}, "[5]": {"assay": "logP determination by HPLC (EEC directive 79/831 Annex V.A8, reversed-phase C 18)", "format": "physicochemical", "conditions": "reversed-phase HPLC column (C 18), pH 2.3, HPLC, reversed-phase column (C 18), 43° C., pH 2.3, 0.1% aqueous phosphoric acid/acetonitrile; read-out: log P", "method": "The stated logP values were determined in accordance with EEC directive 79/831 Annex V.A8 by HPLC (High Performance Liquid Chromatography) using a reversed-phase column (C 18). Temperature: 43° C. In the acidic range, the determination was carried out at pH 2.3 using the mobile phases 0.1% aqueous phosphoric acid and acetonitrile; linear gradient from 10% acetonitrile to 90% acetonitrile."}, "[6]": {"system": "greenhouse red spider mite (Tetranychus urticae)", "assay": "Tetranychus test (OP-resistant/dip treatment)", "format": "in vivo", "conditions": "100 ppm, bean plants dipped, OP-resistant", "method": "[table] To produce a suitable preparation of active compound, 1 part by weight of active compound is mixed with the stated amounts of solvent and emulsifier, and the concentrate is diluted with emulsifier-containing water to the desired concentration. Bean plants (Phaseolus vulgaris) which are heavily infested by all stages of the greenhouse red spider mite (Tetranychus urticae) are dipped into a preparation of active compound of the desired concentration. After the desired period of time, the effect in % is determined. 100% means that all spider mites have been killed; 0% means that none of the spider mites have been killed."}, "Lucilia cuprina larvae": {"system": "Lucilia cuprina larvae", "assay": "Blowfly larvae test / development-inhibitory action", "format": "in vivo", "conditions": "100 ppm", "method": "[table] 20 mg of active compound are dissolved in 1 ml of dimethyl sulphoxide, more dilute concentrations are prepared by dilution with dist. H2O. About 20 Lucilia cuprina larvae are introduced into a test tube which contains about 1 cm^3 of horsemeat and 0.5 ml of the preparation of active compound to be tested. The activity of the preparation of active compound is determined after 24 and 48 hours. The test tubes are transferred into a beaker whose bottom is covered with sand. After a further 2 days, the test tubes are removed and the pupae are counted. The activity of the preparation of active compound is assessed using the number of flies that have hatched after 1.5 times the development period of an untreated control. 100% means that none of the flies have hatched; 0% means that all of the flies have hatched normally."}, "[7]": {"system": "caterpillars of the diamond-back moth (Plutella xylostella)", "assay": "Plutella test", "format": "in vivo", "conditions": "1000 ppm, cabbage leaves dipped", "method": "as §1, with “diamond-back moth (Plutella xylostella)” for “army-worm (Spodoptera exigua)”"}, "[8]": {"system": "fruit tree spider mite (Panonychus ulmi)", "assay": "Panonychus test", "format": "in vivo", "conditions": "200 ppm, plum trees sprayed", "method": "To produce a suitable preparation of active compound, 1 part by weight of active compound is mixed with the stated amounts of solvent and emulsifier, and the concentrate is diluted with emulsifier-containing water to the desired concentration.\nPlum trees (Prunus domestica) of a height of about 30 cm which are heavily infested by all stages of the fruit tree spider mite (Panonychus ulmi) are sprayed with a preparation of active compound of the desired concentration.\nAfter the desired period of time, the effect in % is determined. 100% means that all spider mites have been killed; 0% means that none of the spider mites have been killed."}}, "data": [{"smiles": "Fc1cccc(F)c1C1=NC(c2ccc(-c3ccc(OC(F)(F)F)cc3)cc2)CC1(Cl)Cl", "note": "(stereo not drawn) [drawing 66]", "values": [{"measurement": "Kill rate in % after 6 d", "setting": "[1]", "value": 100, "unit": "%"}]}, {"smiles": "Fc1cccc(F)c1C1=N[C@@H](c2ccc(-c3ccc(OC(F)(F)F)cc3)cc2)CC1(Br)Br", "note": "[drawing 72]", "values": [{"measurement": "Kill rate in % after 7 d", "setting": "[2]", "value": 100, "unit": "%"}]}, {"smiles": "Fc1cccc(F)c1C1=N[C@@H](c2ccc(-c3ccc(OC(F)(F)F)cc3)cc2)CC1(Cl)Cl", "note": "[drawing 54]", "values": [{"measurement": "Kill rate in % after 6 d", "setting": "[3]", "value": 100, "unit": "%"}]}, {"smiles": "Fc1cccc(F)c1C1=NC(c2ccc(-c3ccc(OC(F)(F)F)cc3)cc2)CC1(Cl)Cl", "note": "(stereo not drawn) [drawing 52]", "values": [{"measurement": "Kill rate in % after 6 d", "setting": "[3]", "value": 100, "unit": "%"}]}, {"smiles": "Fc1cccc(F)c1C1=NC(c2ccc(-c3ccc(OC(F)(F)F)cc3)cc2)CC1(Cl)Cl", "note": "(stereo not drawn) [drawing 87]", "values": [{"measurement": "Effect on ecdysis in %", "setting": "[4]", "value": 100, "unit": "%"}]}, {"smiles": "Fc1cccc(F)c1C1=N[C@@H](c2ccc(-c3ccc(OC(F)(F)F)cc3)cc2)C/C1=C\\c1ccc(Br)cc1", "note": "[drawing 73]", "values": [{"measurement": "Kill rate in % after 7 d", "setting": "[2]", "value": 100, "unit": "%"}]}, {"smiles": "Fc1cccc(F)c1C1=NC(c2ccc(-c3ccc(OC(F)(F)F)cc3)cc2)CC1(Cl)Cl", "note": "(stereo not drawn) [Example 4, 4,4-dichloro-5-(2,6-difluorophenyl)-2-[4′-(trifluoromethoxy)-1,1′-biphenyl-4-yl]-3,4-dihydro-2H-pyrrole]", "values": [{"measurement": "melting point", "value": "60 to 61", "unit": "°C"}, {"measurement": "chromatographic logP", "setting": "[5]", "value": 5.92}]}, {"smiles": "Fc1cccc(F)c1C1=N[C@@H](c2ccc(-c3ccc(OC(F)(F)F)cc3)cc2)CC1(Cl)Cl", "note": "[drawing 71]", "values": [{"measurement": "Kill rate in % after 7 d", "setting": "[2]", "value": 100, "unit": "%"}]}, {"smiles": "O=S(=O)(Oc1ccc(-c2ccc([C@H]3C[C@H](Cl)C(c4c(F)cccc4F)=N3)cc2)cc1)C(F)(F)F", "note": "[drawing 89]", "values": [{"measurement": "Effect on ecdysis in %", "setting": "[4]", "value": 100, "unit": "%"}]}, {"smiles": "O=S(=O)(Oc1ccc([C@H]2CC(Br)C(c3c(F)cccc3F)=N2)cc1)C(F)(F)F", "note": "(stereo partly drawn) [drawing 74]", "values": [{"measurement": "Kill rate in % after 7 d", "setting": "[2]", "value": 100, "unit": "%"}]}, {"smiles": "Fc1cccc(F)c1C1=NC(c2ccc(-c3ccc(OC(F)(F)F)cc3)cc2)CC1Cl", "note": "(stereo not drawn) [drawing 53]", "values": [{"measurement": "Kill rate in % after 6 d", "setting": "[3]", "value": 100, "unit": "%"}]}, {"smiles": "Fc1cccc(F)c1C1=N[C@@H](c2ccc(-c3ccc(OC(F)(F)F)cc3)cc2)C/C1=C\\c1ccc(Br)cc1", "note": "[drawing 80]", "values": [{"measurement": "Kill rate in % after 7 d", "setting": "[6]", "value": 98, "unit": "%"}]}, {"smiles": "Fc1cccc(F)c1C1=NC(c2ccc(-c3ccc(OC(F)(F)F)cc3)cc2)CC1(Cl)Cl", "note": "(stereo not drawn) [drawing 84]", "values": [{"measurement": "Kill rate in % after 48 h", "setting": "Lucilia cuprina larvae", "value": 100, "unit": "%"}]}, {"smiles": "Fc1cccc(F)c1C1=NC(c2ccc(-c3ccc(OC(F)(F)F)cc3)cc2)CC1Cl", "note": "(stereo not drawn) [drawing 70]", "values": [{"measurement": "Kill rate in % after 7 d", "setting": "[2]", "value": 100, "unit": "%"}]}, {"smiles": "Fc1cccc(F)c1C1=NC(c2ccc(-c3ccc(OC(F)(F)F)cc3)cc2)CC1Cl", "note": "(stereo not drawn) [drawing 65]", "values": [{"measurement": "Kill rate in % after 6 d", "setting": "[7]", "value": 100, "unit": "%"}]}, {"smiles": "Fc1cccc(F)c1C1=N[C@@H](c2ccc(-c3ccc(OC(F)(F)F)cc3)cc2)CC1(Cl)Cl", "note": "[drawing 88]", "values": [{"measurement": "Effect on ecdysis in %", "setting": "[4]", "value": 100, "unit": "%"}]}, {"smiles": "Fc1cccc(F)c1C1=N[C@@H](c2ccc(-c3ccc(OC(F)(F)F)cc3)cc2)CC1(Cl)Cl", "note": "[drawing 78]", "values": [{"measurement": "Kill rate in % after 7 d", "setting": "[6]", "value": 98, "unit": "%"}]}, {"smiles": "O=S(=O)(Oc1ccc(-c2ccc([C@H]3C[C@H](Cl)C(c4c(F)cccc4F)=N3)cc2)cc1)C(F)(F)F", "note": "[drawing 86]", "values": [{"measurement": "Kill rate in % after 48 h", "setting": "Lucilia cuprina larvae", "value": 100, "unit": "%"}]}, {"smiles": "O=S(=O)(Oc1ccc(-c2ccc([C@H]3C[C@H](Cl)C(c4c(F)cccc4F)=N3)cc2)cc1)C(F)(F)F", "note": "[drawing 75]", "values": [{"measurement": "Kill rate in % after 7 d", "setting": "[2]", "value": 100, "unit": "%"}]}, {"smiles": "Fc1cccc(F)c1C1=NC(c2ccc(-c3ccc(OC(F)(F)F)cc3)cc2)CC1(Cl)Cl", "note": "(stereo not drawn) [drawing 69]", "values": [{"measurement": "Kill rate in % after 7 d", "setting": "[2]", "value": 100, "unit": "%"}]}, {"smiles": "O=S(=O)(Oc1ccc(-c2ccc([C@H]3C[C@H](Cl)C(c4c(F)cccc4F)=N3)cc2)cc1)C(F)(F)F", "note": "[drawing 55]", "values": [{"measurement": "Kill rate in % after 14 d", "setting": "[8]", "value": 100, "unit": "%"}]}, {"smiles": "Fc1cccc(F)c1C1=NC(c2ccc(-c3ccc(OC(F)(F)F)cc3)cc2)CC1Cl", "note": "(stereo not drawn) [drawing 67]", "values": [{"measurement": "Kill rate in % after 6 d", "setting": "[1]", "value": 100, "unit": "%"}]}, {"smiles": "Fc1cccc(F)c1C1=NC(c2ccc(-c3ccc(OC(F)(F)F)cc3)cc2)CC1(Cl)Cl", "note": "(stereo not drawn) [drawing 76]", "values": [{"measurement": "Kill rate in % after 7 d", "setting": "[6]", "value": 98, "unit": "%"}]}, {"smiles": "Fc1cccc(F)c1C1=N[C@@H](c2ccc(-c3ccc(OC(F)(F)F)cc3)cc2)CC1(Cl)Cl", "note": "[drawing 85]", "values": [{"measurement": "Kill rate in % after 48 h", "setting": "Lucilia cuprina larvae", "value": 100, "unit": "%"}]}, {"smiles": "Fc1cccc(F)c1C1=N[C@@H](c2ccc(-c3ccc(OC(F)(F)F)cc3)cc2)CC1(Cl)Cl", "note": "[drawing 68]", "values": [{"measurement": "Kill rate in % after 6 d", "setting": "[1]", "value": 100, "unit": "%"}]}, {"smiles": "O=S(=O)(Oc1ccc(-c2ccc([C@H]3C[C@H](Cl)C(c4c(F)cccc4F)=N3)cc2)cc1)C(F)(F)F", "note": "[drawing 83]", "values": [{"measurement": "Kill rate in % after 7 d", "setting": "[6]", "value": 98, "unit": "%"}]}]}
